Measurements from ChEMBL document CHEMBL3039007, “Structure-based identification of OATP1B1/3 inhibitors” (Mol Pharmacol, 2013).
Residues, ends and D or L forms follow the SMILES beside them.

Experiments:
[1] = target: T1, Solute carrier organic anion transporter family member 1B1 (Homo sapiens, UniProt Q9Y6L6); details: chinese hamster, cho, 10 µM
T1 sequence (Q9Y6L6 whole entry): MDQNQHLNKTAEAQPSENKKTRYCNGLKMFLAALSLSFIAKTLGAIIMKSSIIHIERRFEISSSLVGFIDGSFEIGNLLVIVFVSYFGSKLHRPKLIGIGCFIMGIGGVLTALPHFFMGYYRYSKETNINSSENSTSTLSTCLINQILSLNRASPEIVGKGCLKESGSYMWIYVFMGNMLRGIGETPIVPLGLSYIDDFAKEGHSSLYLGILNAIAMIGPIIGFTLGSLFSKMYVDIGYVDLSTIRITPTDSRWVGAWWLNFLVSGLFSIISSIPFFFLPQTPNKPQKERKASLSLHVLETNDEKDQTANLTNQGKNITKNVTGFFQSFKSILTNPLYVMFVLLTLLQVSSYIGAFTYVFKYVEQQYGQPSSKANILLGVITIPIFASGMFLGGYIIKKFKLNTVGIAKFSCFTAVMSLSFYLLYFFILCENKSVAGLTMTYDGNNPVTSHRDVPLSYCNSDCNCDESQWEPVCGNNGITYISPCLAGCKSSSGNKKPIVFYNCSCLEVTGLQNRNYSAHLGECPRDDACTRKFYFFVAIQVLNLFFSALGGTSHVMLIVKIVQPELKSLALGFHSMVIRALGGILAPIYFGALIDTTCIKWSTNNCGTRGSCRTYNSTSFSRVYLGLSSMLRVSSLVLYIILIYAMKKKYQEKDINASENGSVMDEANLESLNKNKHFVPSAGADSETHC

[2] = target: T2, Solute carrier organic anion transporter family member 1B3 (Homo sapiens, UniProt Q9NPD5); details: chinese hamster, cho, 10 µM
T2 sequence (Q9NPD5 whole entry): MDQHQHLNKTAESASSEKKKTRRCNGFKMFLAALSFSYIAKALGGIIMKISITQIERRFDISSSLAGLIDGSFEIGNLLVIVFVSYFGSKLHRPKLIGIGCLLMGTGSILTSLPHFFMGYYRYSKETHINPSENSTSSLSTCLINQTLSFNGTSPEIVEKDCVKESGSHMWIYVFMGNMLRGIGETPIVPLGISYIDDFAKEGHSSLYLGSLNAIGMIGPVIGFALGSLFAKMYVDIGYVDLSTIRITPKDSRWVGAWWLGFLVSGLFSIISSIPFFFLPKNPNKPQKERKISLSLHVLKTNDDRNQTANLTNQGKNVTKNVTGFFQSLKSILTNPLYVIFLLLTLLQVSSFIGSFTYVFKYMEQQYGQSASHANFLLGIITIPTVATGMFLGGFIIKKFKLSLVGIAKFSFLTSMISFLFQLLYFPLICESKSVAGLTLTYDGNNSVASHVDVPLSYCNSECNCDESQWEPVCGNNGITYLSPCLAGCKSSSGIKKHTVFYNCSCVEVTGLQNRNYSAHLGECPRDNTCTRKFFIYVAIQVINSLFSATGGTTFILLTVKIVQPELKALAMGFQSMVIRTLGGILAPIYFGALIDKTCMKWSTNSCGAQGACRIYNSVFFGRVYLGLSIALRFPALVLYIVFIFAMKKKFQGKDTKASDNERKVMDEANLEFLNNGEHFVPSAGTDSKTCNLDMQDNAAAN

Compound | residual activity [1] [%] | residual activity [2] [%]
CC(C)(C)N.CCC[C@H](N[C@@H](C)C(=O)N1[C@H](C(=O)O)C[C@@H]2CCCC[C@@H]21)C(=O)OCC [PERINDOPRIL ERBUMINE] | 107.5 | 81.39
OCCN1CCN(CCCN2c3ccccc3Sc3ccc(Cl)cc32)CC1 [PERPHENAZINE] | 130 | 113.3
OCC(O)C(O)C(O)C(O)C(O)CO (stereo not drawn) [PERSEITOL] | 60.19 | 73.5
CO[C@H]1[C@H](O)[C@H](O[C@H]2CC[C@@]3(C=O)[C@H](CC[C@@H]4[C@@H]3CC[C@]3(C)[C@@H](C5=CC(=O)OC5)CC[C@]43O)C2)O[C@@H](C)[C@@H]1O [PERUVOSIDE] | 62.43 | 112.7
COc1c(C(C)C)oc2cc3oc(=O)ccc3cc12 [PEUCEDANIN] | 101.3 | 105.2
CC(C)=CCc1c(O)cc2oc(C)cc(=O)c2c1O [PEUCENIN] | 137.1 | 169
NC(=O)NC(=O)Cc1ccccc1 [PHENACEMIDE] | 93.72 | 104.7
CCOc1ccc(NC(C)=O)cc1 [PHENACETIN] | 55.67 | 98.3
Cl.NCC(=O)c1ccccc1 [PHENACYLAMINE HYDROCHLORIDE] | 77.38 | 95.9
Cl.Nc1ccc(/N=N/c2ccccc2)c(N)n1 [PHENAZOPYRIDINE HYDROCHLORIDE] | 115.4 | 115.3
NNCCc1ccccc1.O=S(=O)(O)O [PHENELZINE SULFATE] | 91.37 | 110.5
CC(Oc1ccccc1)C(=O)N[C@@H]1C(=O)N2[C@@H]1SC(C)(C)[C@@H]2C(=O)[O-].[K+] (stereo partly drawn) [PHENETHICILLIN POTASSIUM] | 83.14 | 90.72
O=C1c2ccccc2C(=O)C1c1ccccc1 [PHENINDIONE] | 89.42 | 128.9
CN(C)CCC(c1ccccc1)c1ccccn1.O=C(O)/C=C\C(=O)O (stereo not drawn) [PHENIRAMINE MALEATE] | 72.53 | 103.2
O=C1OC(c2ccc(O)cc2)(c2ccc(O)cc2)c2ccccc21 [PHENOLPHTHALEIN] | 20.62 | 37.96
CC(C)=CC1C(C(=O)OCc2cccc(Oc3ccccc3)c2)C1(C)C (stereo not drawn) [PHENOTHRIN] | 157.5 | 107.3
CC(COc1ccccc1)N(CCCl)Cc1ccccc1.Cl (stereo not drawn) [PHENOXYBENZAMINE HYDROCHLORIDE] | 101.5 | 88.73
Cc1ccc(N(CC2=NCCN2)c2cccc(O)c2)cc1.Cl [PHENTOLAMINE HYDROCHLORIDE] | 85.39 | 86.01
O=C(Cc1ccccc1)NO [PHENYLACETOHYDROXAMIC ACID] | 58.46 | 75.25
N[C@@H](Cc1ccccc1)C(=O)N[C@@H](Cc1ccc(O)cc1)C(=O)O [PHENYLALANYLTYROSINE] (H-Phe-Tyr-OH) | 78.59 | 68.6
CNC[C@H](O)c1cccc(O)c1.Cl [PHENYLEPHRINE HYDROCHLORIDE] | 91.9 | 106.2
O=C1N=C([O-])NC1(c1ccccc1)c1ccccc1.[Na+] [PHENYTOIN SODIUM] | 95.94 | 97.47
O=C(CCc1ccc(O)cc1)c1c(O)cc(O)cc1O [PHLORETIN] | 83.5 | 98.4
O=C(CCc1ccc(O)cc1)c1c(O)cc(O)cc1O[C@@H]1O[C@H](CO)[C@@H](O)[C@H](O)[C@H]1O [PHLORIZIN] | 50.32 | 106.3
CCOP(=S)(OCC)SCSCC [PHORATE] | 102.7 | 107.3

Compound | residual activity [1] [%] | residual activity [2] [%]
CCOP(=S)(OCC)SCn1c(=O)oc2cc(Cl)ccc21 [PHOSALONE] | 116.2 | 124
O=C(O)c1ccccc1C(=O)Nc1ccc(S(=O)(=O)Nc2nccs2)cc1 [PHTHALYLSULFATHIAZOLE] | 115.5 | 107
COc1cc(O)c2c(c1)C(=O)c1cc(C)cc(O)c1C2=O [PHYSCION] | 111.9 | 112.8
CNC(=O)Oc1ccc2c(c1)[C@]1(C)CCN(C)[C@@H]1N2C.O=C(O)c1ccccc1O [PHYSOSTIGMINE SALICYLATE] | 116 | 110.8
CNC(=O)Oc1ccc2c(c1)[C@]1(C)CCN(C)[C@@H]1N2C.CNC(=O)Oc1ccc2c(c1)[C@]1(C)CCN(C)[C@@H]1N2C.O=S(=O)(O)O [PHYSOSTIGMINE SULFATE] | 101.7 | 99.93
CNC(=O)Oc1ccc2c(c1)[C@]1(C)CCN(C)[C@@H]1N2C [PHYSOSTIGMINE] | 78.13 | 80.76
CC(C)(O)[C@@H]1[C@H]2OC(=O)[C@@H]1[C@]1(O)C[C@H]3O[C@]34C(=O)O[C@H]2[C@]14C [PICROTIN] | 88.44 | 89.14
C=C(C)[C@@H]1[C@H]2OC(=O)[C@@H]1[C@]1(O)C[C@H]3O[C@]34C(=O)O[C@H]2[C@]14C [PICROTOXININ] | 102.7 | 101.9
CC[C@@H]1C(=O)OC[C@@H]1Cc1cncn1C.O=[N+]([O-])O [PILOCARPINE NITRATE] | 82.84 | 95.87
CN1CCC(=C2c3ccccc3Sc3ccccc32)CC1.O=C(O)/C=C\C(=O)O [PIMETHIXENE MALEATE] | 83.52 | 104.8
O=c1[nH]c2ccccc2n1C1CCN(CCCC(c2ccc(F)cc2)c2ccc(F)cc2)CC1 [PIMOZIDE] | 167.9 | 121.7
COc1c(OC)c2occc2c2oc(=O)ccc12 [PIMPINELLIN] | 104.9 | 103.2
CC(N/C(=N\C#N)Nc1ccncc1)C(C)(C)C (stereo not drawn) [PINACIDIL ANHYDROUS] | 96.43 | 90.66
O=C1C[C@@H](c2ccccc2)Oc2cc(O)cc(O)c21 [PINOCEMBRIN] | 202 | 97.25
Oc1cc(O)cc(/C=C/c2ccccc2)c1 [PINOSYLVIN] | 133.5 | 114.6
CCc1ccc(CCOc2ccc(CC3SC(=O)NC3=O)cc2)nc1.Cl (stereo not drawn) [PIOGLITAZONE HYDROCHLORIDE] | 122.7 | 88.74
CCn1cc(C(=O)O)c(=O)c2cnc(N3CCNCC3)nc21 [PIPEMIDIC ACID] | 111.8 | 131.1
CC[N+]1(C)CCCC(OC(=O)C(O)(c2ccccc2)c2ccccc2)C1.[Br-] (stereo not drawn) [PIPENZOLATE BROMIDE] | 70.99 | 86.01
C1CNCCN1 [PIPERAZINE] | 77.78 | 102.1
CCN1CCCC(OC(=O)C(c2ccccc2)c2ccccc2)C1.Cl (stereo not drawn) [PIPERIDOLATE HYDROCHLORIDE] | 65.65 | 96
O=C(/C=C/C=C/c1ccc2c(c1)OCO2)N1CCCCC1 [PIPERINE] | 186.2 | 97.82
O=C(CCBr)N1CCN(C(=O)CCBr)CC1 [PIPOBROMAN] | 62.45 | 82.4
Cc1nc2ccccn2c(=O)c1CCN1CCC(C(=O)c2ccc(F)cc2)CC1 [PIRENPERONE] | 93.87 | 102.6
CN1CCN(CC(=O)N2c3ccccc3C(=O)Nc3cccnc32)CC1.Cl.Cl [PIRENZEPINE HYDROCHLORIDE] | 103.8 | 100.6
